Key:
[1] = background statement; cited from earlier work
[2] = Animal biodistribution and clearance studies in rats; format: in vivo
Method: Samples for animal biodistribution studies were administered 1-2 hours post preparation.
Comparative data for Hippuran, Tc-99m TDG and Tc-99m DTPA in rats is set out in Table II.

O=C(O)CNC(=O)c1ccccc1[131I] [Hippuran, sodium iodohippurate]
removed from the blood in a single pass through the kidney [1]: About 80%
Clearance half time [2]: 10.4 min
% in urine at 30 min p.i. ([2]; 30 min p.i.): 82.6%
2 hour dissection (% injected dose) Bladder ([2]; 2 hour dissection): 93.0 % injected dose
2 hour dissection (% injected dose) Intestine ([2]; 2 hour dissection): 2.5 % injected dose
2 hour dissection (% injected dose) Kidney ([2]; 2 hour dissection): 0.2 % injected dose
2 hour dissection (% injected dose) Liver ([2]; 2 hour dissection): 0.2 % injected dose
